Reference: patent US4289781A, “Anti-psychotic phthalimidine derivatives” (priority 1979, dated 1981)

Key:
[1] = system: DA receptors in the brain; experiment: Block of apomorphine induced stereotypies in rats (0-3 scale scoring); type: in vivo, Male Sprague-Dawley rats; details: i.p., 60 min prior to apomorphine hydrochloride 1 mg/kg s.c.; dose reducing strength of stereotypies by 50% over 60 min
From the text: There are several techniques available to study DA receptor blockade in the brain. One method is based on the ability of anti-psychotics to block the behavioural effects induced by the DA agonist apomorphine. Apomorphine produces a characteristic syndrome in rats and other species consisting of repetitive movements (stereotypies) and hyperactivity which appear to be due to activation of postsynaptic DA receptors in the brain (J Pharm. Pharmacol. 19, 627, 1967; J Neurol. Transm. 40, 97-113, 1977). The stereotypies (chewing, licking, biting) appear mainly to reflect action on DA receptors of the neostriatal system ([…]. Res., 11, 1, 1974) whereas the increased locomotion (hyperactivity) mainly appears to be due to activation of DA receptors in mesolimbic structures (nucleus olfactorium, nucleus accumbens), (J Pharm. Pharmacol. 25, 1003, 1973). Male Sprague-Dawley rats weighing 225-275 g were used. […] The compounds were injected 60 min prior to apomorphine hydrochloride (1 mg/kg) which was injected subcutaneously into the neck. […] Furthermore, apomorphine given s.c. also produced a very consistent hyperactivity. Directly after injection, the animals were placed in the cages, one in each cage. Scoring of the stereotypies were performed by two separate methods. The first scoring system was a modified version of the system introduced by Costall and Naylor (1973). The strength of the stereotypy was scored on a 0-3 scale as follows: |______________________________________ |Score Description of stereotyped behaviour. |______________________________________ |0 No change in behaviour compared to saline controls | No sedation. |1 Discontinuous sniffing. |2 Continuous sniffing. |3 Continuous sniffing. Chewing, biting and licking. |______________________________________ In the second system the number of animals displaying hyperactivity caused by apomorphine were scored. Each group consisted of 6-8 animals. Saline controls were always run simultaneously. […] The ED50 's were calculated from log dose-response curves by the method of least squares from 4-6 dose levels with 6-8 animals per dose level.

[2] = system: DA receptors in the brain; experiment: Block of apomorphine induced hyperactivity in rats (number of animals displaying hyperactivity); type: in vivo, Male Sprague-Dawley rats; details: i.p., 60 min prior to apomorphine hydrochloride 1 mg/kg s.c.; dose reducing number of animals showing hyperactivity by 50% over 60 min
From the text: There are several techniques available to study DA receptor blockade in the brain. One method is based on the ability of anti-psychotics to block the behavioural effects induced by the DA agonist apomorphine. Apomorphine produces a characteristic syndrome in rats and other species consisting of repetitive movements (stereotypies) and hyperactivity which appear to be due to activation of postsynaptic DA receptors in the brain (J Pharm. Pharmacol. 19, 627, 1967; J Neurol. Transm. 40, 97-113, 1977). The stereotypies (chewing, licking, biting) appear mainly to reflect action on DA receptors of the neostriatal system (J Phychiat. Res., 11, 1, 1974) whereas the increased locomotion (hyperactivity) mainly appears to be due to activation of DA receptors in mesolimbic structures (nucleus olfactorium, nucleus accumbens), (J Pharm. Pharmacol. 25, 1003, 1973).
Male Sprague-Dawley rats weighing 225-275 g were used. […] The compounds were injected 60 min prior to apomorphine hydrochloride (1 mg/kg) which was injected subcutaneously into the neck.
Directly after injection, the animals were placed in the cages, one in each cage. Scoring of the stereotypies were performed by two separate methods. The first scoring system was a modified version of the system introduced by Costall and Naylor (1973). The strength of the stereotypy was scored on a 0-3 scale as follows:
In the second system the number of animals displaying hyperactivity caused by apomorphine were scored. Each group consisted of 6-8 animals. Saline controls were always run simultaneously. ED50 's are in the first scoring system (0-3 scale), the doses which reduce the strength of the stereotypies by 50% over the observation period of 60 min. ED50 's of the second scoring system are the doses which reduce the number of animals showing hyperactivity by 50% over the observation period of 60 min. The ED50 's were calculated from log dose-response curves by the method of least squares from 4-6 dose levels with 6-8 animals per dose level.

[3] = experimental animals; cited from earlier work
[4] = in vivo; cited from earlier work

SMILES	Stereotypies ED50 [1]	Hyperactivity ED50 [2]	catalepsy [3]	extrapyramidal side effects [4]
O=C1c2ccc(Cl)cc2CN1C1CCN(Cc2ccccc2)CC1 [Example 3, 2-(4-N-benzylpiperidyl)-5-chloro phthalimidine]	16.0 µmol/kg	2.0 µmol/kg	–	–
O=C1c2ccc(F)cc2CN1C1CCN(Cc2ccccc2)CC1 [Example 1, 2-(4-N-benzylpiperidyl)-5-fluorophthalimidine]	22.0 µmol/kg	4.0 µmol/kg	–	–
Cc1ccc(CN2CCC(N3Cc4cc(Br)ccc4C3=O)CC2)cc1 [Example 14]	6.5 µmol/kg	1.7 µmol/kg	–	–
O=C1c2ccc(Cl)cc2CN1C1CCN(Cc2ccc(Cl)cc2)CC1 [Example 15, 5-chloro-2-[4-N-(4-chlorobenzyl)piperidyl)-phthalimidine]	14 µmol/kg	3.5 µmol/kg	–	–
COc1ccc(CN2CCC(N3Cc4cc(Cl)ccc4C3=O)CC2)cc1 [Example 7, 5-chloro-2-[4-N-(4-methoxybenzyl)piperidyl]-phthalimidine]	9.5 µmol/kg	2.2 µmol/kg	–	–
Cc1ccc(CN2CCC(N3Cc4cc(Cl)ccc4C3=O)CC2)cc1 [Example 16, 5-chloro-2-[4-N-(4-methylbenzyl)piperidyl]-phthalimidine]	9 µmol/kg	0.9 µmol/kg	–	–
O=C1c2ccc(Br)cc2CN1C1CCN(Cc2ccc(Cl)cc2)CC1 [Example 11, 5-bromo-2-[4-N-(4-chlorobenzyl)-piperidyl]-phthalimidine]	11 µmol/kg	3.4 µmol/kg	–	–
O=C1c2ccc(Br)cc2CN1C1CCN(Cc2ccccc2)CC1 [Example 2, 2-(4-N-benzylpiperidyl)-5-bromo phthalimidine]	17.5 µmol/kg	14 µmol/kg	–	–
CCN1CCCC1CNC(=O)c1cc(S(N)(=O)=O)ccc1OC (stereo not shown) [Sulpiride]	–	45 µmol/kg	weak catalepsy	weak extrapyramidal side effects
